Literature values as cited in PubChem BioAssay AID1259409 (Chemical Carcinogenesis Research Information System (CCRIS), 2018).

Tested on: rodent chemically induced tumor inhibition, incidence and multiplicity
Assay: CCRIS tumor inhibitor studies

## O=C(O)C[CH2][Ge](=[O])[O][Ge](=[O])[CH2]CC(=O)O
Carcinogen: 1,2-DIMETHYLHYDRAZINE, 540-73-8, Dose [Inhibitor]: 0, 100 MG/KG BW 1/D FOR FIRST 8 WK THEN 1/2 D FOR 19 WK (STUDY DURATION: 27 WK), Route [Inhibitor]: GAVAGE, Species: RAT, Strain/Sex: WISTAR/MALE, Target Tissue: Type of Lesion: COLON: TUMOR, Dose [Carcinogen]: 20 MG/KG BW 1/WK FOR 15 WK, Promoter: NONE USED
  tumour outcome (control, treated, inhibition, significance): 36/36 (100%), 33/35 (94%), 6%, not significant
Carcinogen: DIETHYLNITROSAMINE, 55-18-5, N-METHYL-N-NITROSOUREA, 684-93-5, N,N-DIBUTYLNITROSAMINE, 924-16-3, Carcinogen: DIETHYLNITROSAMINE, 55-18-5, N-METHYL-N-NITROSOUREA, 684-93-5, N,N-DIBUTYLNITROSAMINE, 924-16-3, Dose [Inhibitor]: 0, 0.05% IN DIET BEGINNING POST CARCINOGEN TREATMENT AND CONTINUING TO WK 40 (STUDY DURATION: 40 WK), Route [Inhibitor]: ORAL, Species: RAT, Strain/Sex: F344/MALE, Target Tissue: Type of Lesion: LUNG: ADENOMA, Dose [Carcinogen]: 100 MG/KG DIETHYLNITROSAMINE ONCE FOLLOWED BY 20 MG/KG N-METHYL-N-NITROSOUREA ON D 2, 5, 8 AND 11 THEN 0.05% N-N-DIBUTYL, Promoter: NONE USED
  tumour outcome (control, treated, inhibition, significance): 9/16 (56%), 1/19 (5%), 91%, p<0.001
Carcinogen: DIETHYLNITROSAMINE, 55-18-5, N-METHYL-N-NITROSOUREA, 684-93-5, N,N-DIBUTYLNITROSAMINE, 924-16-3, Carcinogen: DIETHYLNITROSAMINE, 55-18-5, N-METHYL-N-NITROSOUREA, 684-93-5, N,N-DIBUTYLNITROSAMINE, 924-16-3, Dose [Inhibitor]: 0, 0.05% IN DIET BEGINNING POST CARCINOGEN TREATMENT AND CONTINUING TO WK 40 (STUDY DURATION: 40 WK), Route [Inhibitor]: ORAL, Species: RAT, Strain/Sex: F344/MALE, Target Tissue: Type of Lesion: LUNG: CARCINOMA, Dose [Carcinogen]: 100 MG/KG DIETHYLNITROSAMINE ONCE FOLLOWED BY 20 MG/KG N-METHYL-N-NITROSOUREA ON D 2, 5, 8 AND 11 THEN 0.05% N-N-DIBUTYL, Promoter: NONE USED
  tumour outcome (control, treated, inhibition, significance): 3/16 (19%), 0/19 (0%), 100%, not calculated
Carcinogen: DIETHYLNITROSAMINE, 55-18-5, N-METHYL-N-NITROSOUREA, 684-93-5, N,N-DIBUTYLNITROSAMINE, 924-16-3, Carcinogen: DIETHYLNITROSAMINE, 55-18-5, N-METHYL-N-NITROSOUREA, 684-93-5, N,N-DIBUTYLNITROSAMINE, 924-16-3, Dose [Inhibitor]: 0, 0.05% IN DIET BEGINNING POST CARCINOGEN TREATMENT AND CONTINUING TO WK 40 (STUDY DURATION: 40 WK), Route [Inhibitor]: ORAL, Species: RAT, Strain/Sex: F344/MALE, Target Tissue: Type of Lesion: THYROID: ADENOMA, Dose [Carcinogen]: 100 MG/KG DIETHYLNITROSAMINE ONCE FOLLOWED BY 20 MG/KG N-METHYL-N-NITROSOUREA ON D 2, 5, 8 AND 11 THEN 0.05% N-N-DIBUTYL, Promoter: NONE USED
  tumour outcome (control, treated, inhibition, significance): 8/16 (50%), 2/19 (11%), 78%, p<0.02
Carcinogen: DIETHYLNITROSAMINE, 55-18-5, N-METHYL-N-NITROSOUREA, 684-93-5, N,N-DIBUTYLNITROSAMINE, 924-16-3, Carcinogen: DIETHYLNITROSAMINE, 55-18-5, N-METHYL-N-NITROSOUREA, 684-93-5, N,N-DIBUTYLNITROSAMINE, 924-16-3, Dose [Inhibitor]: 0, 0.05% IN DIET BEGINNING POST CARCINOGEN TREATMENT AND CONTINUING TO WK 40 (STUDY DURATION: 40 WK), Route [Inhibitor]: ORAL, Species: RAT, Strain/Sex: F344/MALE, Target Tissue: Type of Lesion: THYROID: CARCINOMA, Dose [Carcinogen]: 100 MG/KG DIETHYLNITROSAMINE ONCE FOLLOWED BY 20 MG/KG N-METHYL-N-NITROSOUREA ON D 2, 5, 8 AND 11 THEN 0.05% N-N-DIBUTYL, Promoter: NONE USED
  tumour outcome (control, treated, inhibition, significance): 2/16 (13%), 1/19 (5%), 62%, not calculated
Carcinogen: DIETHYLNITROSAMINE, 55-18-5, N-METHYL-N-NITROSOUREA, 684-93-5, N,N-DIBUTYLNITROSAMINE, 924-16-3, Carcinogen: DIETHYLNITROSAMINE, 55-18-5, N-METHYL-N-NITROSOUREA, 684-93-5, N,N-DIBUTYLNITROSAMINE, 924-16-3, Dose [Inhibitor]: 0, 0.05% IN DIET BEGINNING POST CARCINOGEN TREATMENT AND CONTINUING TO WK 40 (STUDY DURATION: 40 WK), Route [Inhibitor]: ORAL, Species: RAT, Strain/Sex: F344/MALE, Target Tissue: Type of Lesion: URINARY BLADDER: CARCINOMA, Dose [Carcinogen]: 100 MG/KG DIETHYLNITROSAMINE ONCE FOLLOWED BY 20 MG/KG N-METHYL-N-NITROSOUREA ON D 2, 5, 8 AND 11 THEN 0.05% N-N-DIBUTYL, Promoter: NONE USED
  tumour outcome (control, treated, inhibition, significance): 1/16 (6%), 0/19 (0%), 100%, not calculated
Carcinogen: DIETHYLNITROSAMINE, 55-18-5, N-METHYL-N-NITROSOUREA, 684-93-5 N,N-DIBUTYLNITROSAMINE, 924-16-3, Carcinogen: DIETHYLNITROSAMINE, 55-18-5, N-METHYL-N-NITROSOUREA, 684-93-5 N,N-DIBUTYLNITROSAMINE, 924-16-3, Dose [Inhibitor]: 0, 0.05% IN DIET BEGINNING POST CARCINOGEN TREATMENT AND CONTINUING TO WK 40 (STUDY DURATION: 40 WK), Route [Inhibitor]: ORAL, Species: RAT, Strain/Sex: F344/MALE, Target Tissue: Type of Lesion: URINARY BLADDER: PAPILLOMA, Dose [Carcinogen]: 100 MG/KG DIETHYLNITROSAMINE ONCE FOLLOWED BY 20 MG/KG N-METHYL-N-NITROSOUREA ON D 2, 5, 8 AND 11 THEN 0.05% N-N-DIBUTYL, Promoter: NONE USED
  tumour outcome (control, treated, inhibition, significance): 4/16 (25%), 1/19 (5%), 80%, not calculated

## O=C1C=CC(=O)c2c(O)cccc21
Carcinogen: AZOXYMETHANE [25843-45-2], Dose [Inhibitor]: 200 PPM IN DIET FOR 4 WK BEGINNING 1 WK PRIOR TO FIRST CARCINOGEN DOSE (STUDY DURATION: 35 WK), Route [Inhibitor]: ORAL, Species: RAT, Strain/Sex: F344/MALE, Target Tissue: Type of Lesion: COLON: ADENOMA, Dose [Carcinogen]: 15 MG/KG BW 1X/WK FOR 3 WK (STUDY DURATION: 35 WK), Promoter: NONE
  tumour outcome (control, treated, inhibition, significance): 6/28 (21%), 4/30 (13%), 38%, not significant
Carcinogen: AZOXYMETHANE [25843-45-2], Dose [Inhibitor]: 200 PPM IN DIET FOR 4 WK BEGINNING 1 WK PRIOR TO FIRST CARCINOGEN DOSE (STUDY DURATION: 35 WK), Route [Inhibitor]: ORAL, Species: RAT, Strain/Sex: F344/MALE, Target Tissue: Type of Lesion: COLON: CARCINOMA, Dose [Carcinogen]: 15 MG/KG BW 1X/WK FOR 3 WK (STUDY DURATION: 35 WK), Promoter: NONE
  tumour outcome (control, treated, inhibition, significance): 8/28 (29%), 11/30 (37%), -28%, not significant
Carcinogen: AZOXYMETHANE [25843-45-2], Dose [Inhibitor]: 200 PPM IN DIET FOR 4 WK BEGINNING 1 WK PRIOR TO FIRST CARCINOGEN DOSE (STUDY DURATION: 35 WK), Route [Inhibitor]: ORAL, Species: RAT, Strain/Sex: F344/MALE, Target Tissue: Type of Lesion: SMALL INTESTINE: CARCINOMA, Dose [Carcinogen]: 15 MG/KG BW 1X/WK FOR 3 WK (STUDY DURATION: 35 WK), Promoter: NONE
  tumour outcome (control, treated, inhibition, significance): 7/28 (25%), 2/30 (7%), 72%, p<0.05

## Oc1c(Cl)c(Cl)c(Cl)c(Cl)c1Cl
Carcinogen: N-HYDROXY-2-ACETYLAMINOFLUORENE, 53-95-2, Dose [Inhibitor]: 0, 0.04 UMOL/G BW IN 10 µL/G BW TRIOCTANOIN ONCE 45 MIN PRIOR TO CARCINOGEN DOSE (STUDY DURATION: 10 MO), Route [Inhibitor]: INTRAPERITONEAL, Species: MOUSE, Strain/Sex: B6C3F1/MALE, Target Tissue: Type of Lesion: LIVER: HEPATOMA, Dose [Carcinogen]: 0.06 UMOL/G BW IN 5 µL/G BW OF 80% DMSO, Promoter: NONE USED
  tumour outcome (control, treated, inhibition, significance): 34/34 (100%), 19/33 (58%), 42%, not calculated
Carcinogen: N-HYDROXY-2-ACETYLAMINOFLUORENE, 53-95-2, Dose [Inhibitor]: 0, 0.04 UMOL/G BW IN 10 µL/G BW TRIOCTANOIN ONCE 45 MIN PRIOR TO CARCINOGEN DOSE (STUDY DURATION: 10 MO), Route [Inhibitor]: INTRAPERITONEAL, Species: MOUSE, Strain/Sex: B6C3F1/MALE, Target Tissue: Type of Lesion: LIVER: HEPATOMA, Dose [Carcinogen]: 0.11 UMOL/G BW IN 5 µL/G BW OF 80% DMSO, Promoter: NONE USED
  tumour outcome (control, treated, inhibition, significance): 33/33 (100%), 31/37 (84%), 16%, not calculated
Carcinogen: N-HYDROXY-2-ACETYLAMINOFLUORENE, 53-95-2, Dose [Inhibitor]: 0, 0.04 UMOL/G BW IN 10 µL/G BW TRIOCTANOIN ONCE 45 MIN PRIOR TO CARCINOGEN DOSE (STUDY DURATION: 10 MO), Route [Inhibitor]: INTRAPERITONEAL, Species: MOUSE, Strain/Sex: B6C3F1/MALE, Target Tissue: Type of Lesion: LIVER: HEPATOMA, Dose [Carcinogen]: 0.22 UMOL/G BW IN 5 µL/G BW OF 80% DMSO, Promoter: NONE USED
  tumour outcome (control, treated, inhibition, significance): 39/39 (100%), 31/41 (76%), 24%, not calculated
